Test results from patent US20250120924A1, “COMPOSITIONS OF TAURINE AND MALIC ACID AND METHODS OF MAKING THE COMPOSITIONS” (NutriScience Innovations LLC, priority 2023, published 2025).

Test system: Wild-type nematodes
Test: Nematode lifespan/survival in microfluidic chips
Assay type: in vivo
Settings: versus control, FIG. 4
Description: EXAMPLE 8—Animal Studies: A nematode animal model was used to evaluate lifespan/survival and energy/activity. Wild-type nematodes were loaded into microfluidic chips and were fed […] E. coli OP50 in NGM buffer food source. The methods have been previously described. Nematode lifespan was measured by survival at standard 18 days, while nematode activity was measured at an optimum 15 days using a visual score. Dosing of 2:1 taurine to malic acid molar ratio composition (composition #4, Example 1) was made using the methodology described previously was at 200 micrograms/ml/day, with the solid composition being dissolved in the aqueous feed. This is equivalent to a human dose of 5 grams per day for these animals. The 5 gram per day human dose equivalent represents a dose of 3.26 grams of taurine and 1.74 grams of malic acid (2:1 molar ratio). The results were compared with taurine alone (human equivalent dose 3.26 grams), and malic acid alone (1.74 grams malic acid).
Eighteen days is the typical survival time for nematodes. Eighteen days may be considered “old-age” for these animals. […] This unexpected synergistic effect has not been previously observed. […] Specific energy/activity levels of the neamtodes was measured at an optimum 15 days of life (which may be considered “middle-age”).

SMILES	nematode survival at 18 days (malic acid alone, human equivalent dose 1.74 grams)	nematode survival at 18 days (taurine alone, human equivalent dose 3.26 grams)
O=C(O)CC(O)C(=O)O (centres unmarked) [malic acid]	did not improve survival times versus control	
NCCS(=O)(=O)O [taurine, 2-aminoethanesulfonic acid]		did not improve survival times versus control
